This is an account of results in patent publication US10441654B2 (priority 2014, dated 2019).

“Also recorded” adds a separate entry of the source.

In one series the test system is cIAP1/2. As to the kind of experiment: cIAP1/2 knockdown in EMT6 tumors (western blotting). The class given is in vivo, mouse. The following applies: 50 mg/kg oral gavage. A general note: In western blotting, separated proteins are transferred to a membrane and probed.
The subject of series [1] is TNFα. The class given is cell-based, mouse.
A further series has as its system EMT6 mammary carcinoma. The conditions noted are these: mouse, in vivo.
The test system of series [2] is VSVΔ51. The class given is cell-based.
Series [3] concerns VSVΔ51. The conditions noted are these: mouse, 50 mg/kg.
The subject of series [4] is CT-2A intracranial tumors. The conditions noted are these: mouse, in vivo.
Another series concerns cancer cell lines (n=28). Type of series: cell-based.
The subject of another series is TRAIL and TNFα. The class given is cell-based, human.
The conditions of series [5]: mouse, in vivo.
The test system of a further series is SNB75 cells. As to the kind of experiment: cells. The class given is cell-based. The following applies: Homo sapiens, SNB-75, read-out: EC50 of SMC therapy.
Series [6] relates to CT-26 mouse colon carcinoma. The conditions noted are these: in vivo.
In a further series the test system is IFNβ. Type of series: cell-based.
The subject of series [7] is interferon stimulated gene (ISG) expression. Type of series: cell-based. The conditions noted are these: cells treated with VSVΔ51 and SMC, 20 hours.
A further series deals with 786-0 cells. The class given is cell-based.
The test system of series [8] is cancer cells. Type of series: cell-based.
Series [9] deals with Jak/Stat signalling downstream of IFNβ. Type of series: cell-based.
In a further series the test system is EMT6 cells. The class given is cell-based, mouse.
The test system of series [10] is cancer cells. Type of series: cell-based. The source holds these as a separate data set.
For series [11], the system named is CT-2A, K1580 glioblastoma cells. Type of series: cell-based, mouse.
The conditions of series [12]: mouse, in vivo. The source holds these as a separate data set.
Series [13] relates to TNFα. The following applies: mouse, in vivo, ip.
Series [14] deals with TNFα. The following applies: mouse, in vivo, ip. This is another data set of the same source.

A word on the EC50: it is the concentration giving half of the maximal effect. On to `CN[C@@H](C)C(=O)N[C@H](C(=O)N1CCC[C@H]1c1nc(C(=O)c2ccc(F)cc2)cs1)C1CCCCC1` [LCL161], for which, in the series with cIAP1/2, the “duration of cIAP1/2 knockdown in tumors” value is “at least 24 hrs” and the “duration of cIAP1/2 knockdown in tumors, in some cases” value lay within 48 to 72 h. The “cellular production of TNFα upon VSV infection” value with TNFα [1] is given as 5- to 7 fold percentage increase. Besides, in the series on EMT6 mammary carcinoma, the cure rate was 17%; the “tumor growth and survival” value was “decrease in the rate of tumor growth and a modest extension in survival; also recorded: slightly extended mouse survival”; the “tumor growth rates and survival” value is “slightly delayed EMT6 tumor growth rates and slightly extended the survival”. Moreover, in the series on VSVΔ51 [2], the “VSVΔ51 infectivity in or spread through tumor cells” value is reported as “does not alter” and the “growth kinetics of VSVΔ51” value is recorded as “does not affect the growth kinetics”. Besides, the “viral replication and spread in vivo” value in the series on VSVΔ51 [3] is given as “No differences in viral kinetics”. Also, the neurotoxicity result in series [4] was “did not result in any overt neurotoxicity”. In the series with cancer cell lines (n=28), the “cancer cell lines in which SMC treatment enhanced sensitivity to VSVΔ51” value is 54% and the “enhanced sensitivity: EC50 of VSVΔ51 upon SMC treatment” value is 10-10,000 fold. Moreover, in the series on TRAIL and TNFα, the “induction of TRAIL and TNFα by IFNβ” value was “potentiated”. In addition, the tolerability entry in [5] was “well tolerated”. Also, in [5] (po, 50 mg/kg), the weight loss entry is listed as “minimal transient weight loss”. The EC50 in the series on SNB75 cells was greater than 2500 nM. Further, the “tumor growth rate and survival” value in [6] was “modest decrease of the tumor growth rate and a slight extension of survival”. Further, in the series on IFNβ, the IFNβ secretion result is “slightly lower levels”. In addition, the “ISG gene expression in response to oncolytic VSV infection” value in series [7] was “no bearing”. For the same compound, the “cell death outside of the zone of virus infection” value in the series with 786-0 cells was “dramatic cell death”. Moreover, the “synergy with VSVΔ51 to cause cancer cell death” value with cancer cells [8] is listed as “synergize”. Also, the “activation of Jak/Stat signalling downstream of IFNβ” value in [9] is listed as “do not alter”.

Consider `CC(C)Cn1cnc2c(N)nc3ccccc3c21` [imiquimod], for which the “bystander death of SMC treated EMT6 cells” value in the series with EMT6 cells was “required splenocytes”.

In the case of IFNα, the “tumor growth and survival” value in the series with EMT6 mammary carcinoma is on record as “no effect on EMT6 tumor growth or overall survival”. The neurotoxicity result in [4] was “did not result in any overt neurotoxicity”. Moreover, the “synergy with SMC recapitulated by recombinant cytokine” value with cancer cells [10] is “recapitulated”.

IFNγ: the “synergy with SMC recapitulated by recombinant cytokine” value in the series on cancer cells [10] is reported as “recapitulated”.

SM-164: the “synergy with VSVΔ51 to cause cancer cell death” value in the series on cancer cells [8] is reported as “synergize”.

Consider poly(I:C), for which, in [11], the “glioblastoma cell death by brain lysates of treated mice in the presence of SMCs” value is reported as “enhanced cell death in the presence of SMCs”. In addition, the tumor growth result with EMT6 mammary carcinoma is given as “no bearing on tumor growth”. Further, the “toxicity of direct intracranial administration” value in series [12] was “without overt toxicities”. Moreover, the “bystander death of SMC treated EMT6 cells” value in the series on EMT6 cells was “led to EMT6 cell death directly”. Further, the TNFα in serum result in the series on TNFα [13] was “robust expression of TNFα”. The “TNFα levels from the brain” value in the series on TNFα [14] is “marked up-regulation of TNFα levels”.
